According to US7169772B2, “4,4-difluoro-1,2,3,4-tetrahydro-5H-1-benzazepine derivatives or salts thereof” (Astellas Pharma Inc., priority 2001, dated 2007):

Tests used:
[1] = target: T1, human V2 receptor (Homo sapiens, UniProt P30518); test: V2 receptor binding assay; settings: human V2 expression CHO cell membrane, [3H]-Vasopressin 0.5 nM, 25° C., 60 minutes; read-out: Ki (affinity for V2 receptor)
T1 construct: expressed in transfected cells; host or cells: CHO cells
Experimental: (1) V2 Receptor Binding Assay
A human V2 expression CHO cell membrane sample was prepared in accordance with a method of Tahara, et al. (British Journal of Pharmacology. Vol 125, p. 1463–1470, 1998). 2 μg of the membrane sample were incubated in a total of 250 μl of 50 mM tris-chloric acid buffer solution (pH=7.4) containing 10 mM MgCl2 and 0.1% bovine serum albumin (BSA), together with [^3H]-Arginine-Vasopressin (hereinafter referred to as ‘[^3H]-Vasopressin’) (0.5 nM, Specific activity=75 Ci mmol) and a test compound (10^−10˜10^−5 M) at 25° C. for 60 minutes. Then, free [^3H]-Vasopressin and receptor binding [^3H]-Vasopressin were separated using a cell harvester, and the receptor binding [^3H]-Vasopressin was adsorbed on a Unifilter Plate GF/B glass filter, sufficiently dried, and then mixed with a microplate scintillation cocktail. The amount of receptor binding [^3H]-Vasopressin was measured using a top count, and inhibition rate was calculated by the following equation. Inhibition Rate(%)=100−(C1−B1)/(C0−B1)×100 • C1: the amount of [^3H]-Vasopressin bound to the membrane sample, when the receptor membrane sample is treated in the coexistence of a test compound of known concentration and [^3H]-Vasopressin • C0: the amount of [^3H]-Vasopressin bound to the membrane sample, when the receptor membrane sample is treated with [^3H]-Vasopressin, in the absence of a test compound • B1: the amount of [^3H]-Vasopressin bound to the membrane sample, when the receptor membrane sample is treated in the coexistence of an excess amount of Vasopressin (10^−6 M) and [^3H]-Vasopressin
Dissociation Coefficient (Ki)=IC50/(1+[L]/Kd) • [L]: the concentration of [^3H]-Vasopressin • Kd: dissociation coefficient of [3H]-Vasopressin for the receptor, calculated from saturation binding assay

[2] = system: Wistar male rats; test: Antidiuresis assay (oral administration); format: in vivo; settings: Rattus norvegicus, read-out: ED50 (amount required for decreasing urinary excretion rate by 50%), 30 ml/kg water load after 15 minutes, urine until 4 hours after water load
Experimental: (3) Antidiuresis Assay (Oral Administration)
For the assay, Wistar male rats (10˜12 weeks of age) were employed. The test compound was orally administrated, and after 15 minutes, 30 ml/kg of distilled water were orally administrated (water load). Until 4 hours after the water load, urine was collected in a metabolism cage, and the amount of urine when the water load was set to 100% was calculated as the urinary excretion rate. […]

[3] = target: CYP3A4 (Homo sapiens, UniProt P08684); test: Cytochrome P450 (3A4) enzyme inhibition assay; format: biochemical; settings: substrate 7-benzyloxy-4-(trifluoromethyl)coumarin, 37° C., 30 minutes
Experimental: (4) Cytochrome P450 (3A4) Enzyme Inhibition Assay
(§1) The assay was carried out in accordance with a method of Crespi, et al. (Analytical Biochemistry, 248, 188–190, 1997).
A 96 well plate was employed, and 7-benzyloxy-4-(trifluoromethyl)coumarin (5×10^−5 M) as a substrate, a test compound (4.9×10^−8˜5×10^−5 M), and an enzyme (5×10^−9 M) were incubated in a total of 200 μl of a 200 mM phosphate buffer solution (pH=7.4) comprising 8.2 μM NADP+, 0.41 mM glucose-6-phosphate, 0.41 mM MgCl2, and 0.4 Units/ml glucose-6-phosphate dehydrogenase, at 37° C. for 30 minutes. Then, 0.5 M aqueous solution of 2-amino-2-hydroxymethyl-1,3-propanediol containing 80% acetonitrile was added thereto to stop the reaction, and fluorescence intensity was measured with a fluorescent plate reader (excited wavelength: 409 nm, fluorescent wavelength: 530 nm). […] Inhibition Rate (%)=100−(C1−B1)/(C0−B1)×100 • C1: fluorescence intensity in the presence of a known concentration of test compound, enzyme, and a substrate
(§2) C0: fluorescence intensity in the presence of an enzyme and a substrate, in the absence of a test compound • B1: fluorescence intensity of a blank well (5) Cytochrome P450 (2C9) Enzyme Inhibition Effects

[4] = target: CYP2C9 (Homo sapiens, UniProt P11712); test: Cytochrome P450 (2C9) enzyme inhibition effects; format: biochemical; settings: substrate 7-methoxy-4-(trifluoromethyl)coumarin, 37° C., 45 minutes
Experimental: as §2, §1
A 96 well plate was employed, and 7-methoxy-4-(trifluoromethyl)coumarin (7.5×10^−5 M) as a substrate, a test compound (4.9×10^−8˜5×10^−5M), and an enzyme (10^−8 M) were incubated in a total of 200 μl of a 200 mM phosphate buffer solution (pH=7.4) comprising 8.2 μM NADP+, 0.41 mM glucose-6-phosphate, 0.41 mM MgCl2, and 0.4 Units/ml glucose-6-phosphate dehydrogenase, at 37° C. for 45 minutes. Then, 0.5 M aqueous solution of 2-amino-2-hydroxymethyl-1,3-propanediol containing 80% acetonitrile was added thereto to stop the reaction, and fluorescence intensity was measured with a fluorescent plate reader (excited wavelength: 409 nm, fluorescent wavelength: 530 nm). […]

Chain of CYP3A4 (P08684 whole entry): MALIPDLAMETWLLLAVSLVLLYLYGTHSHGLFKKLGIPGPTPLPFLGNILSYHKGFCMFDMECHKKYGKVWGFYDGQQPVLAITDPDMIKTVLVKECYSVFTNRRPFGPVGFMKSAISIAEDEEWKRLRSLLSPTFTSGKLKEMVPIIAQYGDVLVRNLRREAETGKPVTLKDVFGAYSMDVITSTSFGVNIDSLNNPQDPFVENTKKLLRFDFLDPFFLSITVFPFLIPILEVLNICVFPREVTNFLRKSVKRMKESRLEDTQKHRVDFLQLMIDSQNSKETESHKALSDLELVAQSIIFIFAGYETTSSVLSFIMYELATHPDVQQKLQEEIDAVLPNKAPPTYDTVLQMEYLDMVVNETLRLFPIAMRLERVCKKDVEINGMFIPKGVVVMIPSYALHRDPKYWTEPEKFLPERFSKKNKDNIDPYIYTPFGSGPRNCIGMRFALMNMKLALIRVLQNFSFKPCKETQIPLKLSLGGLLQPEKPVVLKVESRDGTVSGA
Chain of CYP2C9 (P11712 whole entry): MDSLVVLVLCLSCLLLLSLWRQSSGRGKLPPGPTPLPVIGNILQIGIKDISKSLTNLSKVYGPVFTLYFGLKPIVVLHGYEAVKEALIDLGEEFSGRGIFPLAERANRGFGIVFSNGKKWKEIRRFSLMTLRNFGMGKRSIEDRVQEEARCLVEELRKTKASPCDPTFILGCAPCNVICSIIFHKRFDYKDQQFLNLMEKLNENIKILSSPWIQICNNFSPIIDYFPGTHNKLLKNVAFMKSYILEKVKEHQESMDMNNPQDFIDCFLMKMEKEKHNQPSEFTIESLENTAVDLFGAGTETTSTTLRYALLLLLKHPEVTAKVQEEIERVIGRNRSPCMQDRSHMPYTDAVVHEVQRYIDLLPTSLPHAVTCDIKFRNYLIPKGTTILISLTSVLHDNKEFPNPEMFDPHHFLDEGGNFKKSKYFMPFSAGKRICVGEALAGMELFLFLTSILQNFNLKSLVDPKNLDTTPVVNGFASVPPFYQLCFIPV
T1 sequence (P30518 whole entry): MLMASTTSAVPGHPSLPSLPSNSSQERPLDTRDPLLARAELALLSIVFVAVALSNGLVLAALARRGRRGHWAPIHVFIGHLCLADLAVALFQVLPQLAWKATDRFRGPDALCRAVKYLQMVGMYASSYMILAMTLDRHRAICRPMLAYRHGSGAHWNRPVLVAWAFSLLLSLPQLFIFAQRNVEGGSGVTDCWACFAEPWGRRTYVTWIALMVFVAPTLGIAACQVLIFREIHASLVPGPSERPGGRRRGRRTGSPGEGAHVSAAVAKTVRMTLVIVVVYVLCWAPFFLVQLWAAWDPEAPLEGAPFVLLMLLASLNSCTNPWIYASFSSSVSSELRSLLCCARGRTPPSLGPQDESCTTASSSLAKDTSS

Ki [1] [nM]	IC50 [3] [nM]	IC50 [4] [nM]	Compound	ED50 [2] [mg/kg]
4.8	–	–	Cc1ccn(-c2ccc(C(=O)N3CCC(F)(F)/C(=C\C(=O)N4CCCC(C(N)=O)C4)c4ccccc43)c(Cl)c2)n1 (stereo not shown) [Example 58, 1-((2Z)-2-{1-[2-chloro-4-(3-methyl-1H-pyrazol-1-yl)benzoyl]-4,4-difluoro-1,2,3,4-tetrahydro-5H-1-benzazepin-5-ylidene}acetyl)piperidine-3-carboxamide]	–
2.2	–	–	Cc1ccn(-c2ccc(C(=O)N3CCC(F)(F)/C(=C\C(=O)Nc4cccc(CO)c4)c4ccccc43)c(Cl)c2)n1 [Example 76, (2Z)-2-{1-[2-chloro-4-(3-methyl-1H-pyrazol-1-yl)benzoyl]-4,4-difluoro-1,2,3,4-tetrahydro-5H-1-benzazepin-5-ylidene}-N-[3-(hydroxymethyl)phenyl]acetamide]	0.22
5.6	–	–	Cc1cccc(NC(=O)/C=C2/c3ccccc3N(C(=O)c3ccc(-n4ccc(C)n4)cc3Cl)CCC2(F)F)c1 [Example 74, (2Z)-2-{1-[2-chloro-4-(3-methyl-1H-pyrazol-1-yl)benzoyl]-4,4-difluoro-1,2,3,4-tetrahydro-5H-1-benzazepin-5-ylidene}-N-(3-methylphenyl)acetamide]	–
–	> 20000	13000	Cc1ccn(-c2ccc(C(=O)N3CCC(F)(F)/C(=C\C(N)=O)c4ccccc43)c(Cl)c2)n1 [Example 8, (2Z)-2-{1-[2-chloro-4-(3-methyl-1H-pyrazol-1-yl)benzoyl]-4,4-difluoro-1,2,3,4-tetrahydro-5H-benzazepine}acetamide]	–
–	10000	11000	NC(=O)CNC(=O)/C=C1/c2ccccc2N(C(=O)c2ccc(N3CCCC3)cc2Cl)CCC1(F)F [Example 220, (2Z)-N-(2-amino-2-oxoethyl)-2-[1-(2-chloro-4-pyrrolidin-1-ylbenzoyl)-4,4-difluoro-1,2,3,4-tetrahydro-5H-1-benzazepin-5-ylidene]acetamide]	–
3.7	–	–	Cc1ccn(-c2ccc(C(=O)N3CCC(F)(F)/C(=C\C(=O)Nc4ccc(C(N)=O)cc4)c4ccccc43)c(Cl)c2)n1 [Example 72, 4-[((2Z)-2-{1-[2-chloro-4-(3-methyl-1H-pyrazol-1-yl)benzoyl]-4,4-difluoro-1,2,3,4-tetrahydro-5H-1-benzazepin-5-ylidene}acetyl)amino]benzamide]	–
5.6	–	–	Cc1cccc(CNC(=O)/C=C2/c3ccccc3N(C(=O)c3ccc(-n4ccc(C)n4)cc3Cl)CCC2(F)F)n1 [Example 119, (2Z)-2-{1-[2-chloro-4-(3-methyl 1H-pyrazol-1-yl)benzoyl]-4,4-difluoro-1,2,3,4-tetrahydro-5H-1-benzazepin-5-ylidene}-N-[(6-methylpyridin-2-yl)methyl]acetamide]	–

Compound	Ki [1] [nM]	IC50 [3] [nM]	IC50 [4] [nM]	ED50 [2] [mg/kg]
CC(C)NC(=O)C[C@H]1CCCN(C(=O)c2ccc(N3CCCC3)cc2Cl)c2ccccc21 [Control, 2-[(5R)-1-(2-chloro-4-pyrrolidin-1-ylbenzoyl)-2,3,4,5-tetrahydro-1H-1-benzazepin-5-yl]-N-isopropyacetamide, reference compound]	68	< 91	< 91	–
